# Data taken from ChEMBL document CHEMBL1126193, “Omega-[(omega-arylalkyl)thienyl]alkanoic acids: from specific LTA4 hydrolase inhibitors to LTB4 receptor antagonists” (J Med Chem, 1992).
# pIC50: −log10 of the molar value.
# Legend:
# [1] = tested on: Leukotriene A-4 hydrolase (Sus scrofa); assay: Tested for Percentage inhibition of LTA4 hydrolase at 2*10e-5M concentration in porcine leukocyte homogenates
# [2] = tested on: Leukotriene B4 receptor 1 (Cavia porcellus); assay: Percent inhibition of [3H]-LTB4 binding to guinea pig spleen Leukotriene B4 receptor at the concentration of 10e-5 M
# [3] = tested on: Leukotriene A-4 hydrolase (Sus scrofa); assay: Tested for 50% inhibition of LTA4 hydrolase at 2*10e-5M concentration in porcine leukocyte homogenates
# [4] = compound was tested for 50% inhibition of LTA4 hydrolase at 2*10e-5M concentration in porcine leukocyte homogenates; type: tissue-based, Sus scrofa
SMILES,inhibition [1] [%],inhibition [2] [%],inhibition [3] [%],pIC50 [4]
O=C(O)CCCCCCc1csc(CCCc2ccc(Cl)cc2)c1,73,,,
O=C(O)CCCCCCc1ccsc1C(=O)CCc1ccccc1,,17,,
Cc1cc(CCCCCCC(=O)O)c(CCCc2ccccc2)s1,0,,,
O=C(O)CCCCCCc1csc(CCCc2ccc(O)cc2)c1,100,,,
O=C(O)CCCCCC(=O)c1sccc1CCCc1ccccc1,,59,,
O=C(O)CCCCc1sccc1CCCc1ccccc1,,,0,
O=C(O)CCCCCCc1ccsc1CCCc1ccc(Cl)cc1,24,,,
O=C(O)CCCCCCc1cc(CCCCCc2ccccc2)cs1,,31,49,
O=C(O)CCCCCCc1ccc(CCCc2ccccc2)s1,,,84,5.54
O=C(O)CCCCCCc1cc(CCCc2ccccc2)cs1,,38,42,
COc1ccc(CCCc2cc(CCCCCCC(=O)O)cs2)cc1,68,,,
O=C(O)CCCCCCc1csc(CCCc2ccccc2)c1,,10,100,5.82
O=C(O)CCCCCCc1sc(-c2ccccc2)cc1CCCc1ccccc1,0,,,
O=C(O)CCCCCCc1csc(CCc2ccccc2)c1,,,49,
O=C(O)CCCCCCc1cc(Cc2ccccc2)cs1,,33,70,5.02
O=C(O)CCCCCc1cc(CCCc2ccccc2)cs1,,36,32,
O=C(O)CCCCCCc1sccc1CCCCCc1ccccc1,,39,9,

# Other lines, results leading:
inhibition [1] [%],inhibition [2] [%],inhibition [3] [%],pIC50 [4],SMILES
,0,25,,O=C(O)CCCCCCc1cc(-c2ccccc2)cs1
,35,0,,O=C(O)CCCCc1cc(CCCc2ccccc2)cs1
,,68,,O=C(O)CCCCCCc1csc(Cc2ccccc2)c1
,51,,,Cc1cc(C(=O)CCCCCC(=O)O)c(CCCc2ccccc2)s1
,38,0,,O=C(O)CCCCCCc1ccsc1CCc1ccccc1
,15,0,,O=C(O)CCCCCCc1sccc1Cc1ccccc1
,,0,,O=C(O)CCCCCCc1sccc1CCCc1ccccc1
,,0,,O=C(O)CCCCCCc1ccsc1CCCc1ccccc1
